These results are taken from patent US11274106B2, “Topoisomerase inhibitors with antibacterial and anticancer activity” (THE BOARD OF TRUSTEES OF THE UNIVERSITY OF ILLINOIS, priority 2017, dated 2022).

The subject of experiment [1] is HCT-116. The experiment is described as follows: Antiproliferative SRB assay, HCT-116. It counts as cell-based. Particulars: Homo sapiens, HCT-116, 72 h, Colon cancer, mean ± SEM. From the text:
(§1) Topoisomerase inhibitors such as DOX are used as single agent and in combination therapy to treat a wide-range of cancer types.
For orientation: In SRB staining, fixed cells bind dye roughly in proportion to their protein.

For experiment [2], the system named is MRSA. The experiment is described as follows: Antibacterial MIC, microbroth dilution, MRSA. It counts as cell-based, S. aureus. Particulars: Staphylococcus aureus, MRSA; microbroth dilution. How it is done:
(§2) To investigate this possibility, the antibacterial effects of the DNM derivatives was assessed against strains of E. coli, S. aureus, and MRSA using the microbroth dilution method (Table 2).
Background: In broth dilution the organism is exposed to a series of concentrations in liquid medium.

The target of experiment [3] is E. coli DNA Gyrase (Escherichia coli, UniProt P0AES4+P0AES6). Nature of the experiment: E. coli DNA Gyrase supercoiling assay. It counts as biochemical. An excerpt: (§3) FIG. 8. In vitro inhibitory activity of 6DNM-NH3, Ph-6DNM-NH3 against E. coli DNA gyrase and TopoIV.
(§4) DNM and its derivatives exert their antibacterial effects through inhibition of the DNA Gyrase.

Experiment [4] concerns the target E. coli TopoIV (Escherichia coli, UniProt P0AFI2+P20083). The experiment is described as follows: E. coli TopoIV decatenation assay. It counts as biochemical.
From the text: as §3, §4

In experiment [5] the test system is S. aureus. Nature of the experiment: Antibacterial MIC, microbroth dilution, S. aureus. It counts as cell-based. The protocol: as §2
Experiment [6] relates to HOS. The experiment is described as follows: Antiproliferative SRB assay, HOS. It counts as cell-based. The settings on record: Homo sapiens, 72 h, Osteosarcoma, mean ± SEM.
From the text: as §1

Converted amounts (≈) assume the structure as drawn.

E. coli DNA Gyrase, sequence (P0AES4 whole entry, one chain of several): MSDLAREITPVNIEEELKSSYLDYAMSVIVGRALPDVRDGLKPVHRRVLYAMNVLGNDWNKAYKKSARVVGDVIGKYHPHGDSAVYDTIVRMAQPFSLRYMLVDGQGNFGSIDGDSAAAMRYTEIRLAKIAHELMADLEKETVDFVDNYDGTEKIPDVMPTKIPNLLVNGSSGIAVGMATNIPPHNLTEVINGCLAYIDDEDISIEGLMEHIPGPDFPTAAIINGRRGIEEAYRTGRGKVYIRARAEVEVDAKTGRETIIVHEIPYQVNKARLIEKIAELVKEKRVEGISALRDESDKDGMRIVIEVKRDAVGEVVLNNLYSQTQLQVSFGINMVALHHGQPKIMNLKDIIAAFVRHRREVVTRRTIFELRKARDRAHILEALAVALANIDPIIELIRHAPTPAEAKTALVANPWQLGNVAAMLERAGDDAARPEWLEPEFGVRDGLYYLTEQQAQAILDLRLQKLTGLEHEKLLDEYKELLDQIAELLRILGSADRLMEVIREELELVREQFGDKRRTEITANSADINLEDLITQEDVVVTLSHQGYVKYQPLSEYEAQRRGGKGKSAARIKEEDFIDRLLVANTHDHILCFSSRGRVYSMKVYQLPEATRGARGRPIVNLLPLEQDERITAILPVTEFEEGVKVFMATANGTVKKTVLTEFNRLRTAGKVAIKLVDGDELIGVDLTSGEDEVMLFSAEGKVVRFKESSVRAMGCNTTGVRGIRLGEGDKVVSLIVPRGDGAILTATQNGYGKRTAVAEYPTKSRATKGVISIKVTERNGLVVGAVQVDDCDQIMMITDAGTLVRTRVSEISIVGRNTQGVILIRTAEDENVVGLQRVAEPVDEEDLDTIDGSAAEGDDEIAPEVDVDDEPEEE
E. coli TopoIV, sequence (P0AFI2 whole entry): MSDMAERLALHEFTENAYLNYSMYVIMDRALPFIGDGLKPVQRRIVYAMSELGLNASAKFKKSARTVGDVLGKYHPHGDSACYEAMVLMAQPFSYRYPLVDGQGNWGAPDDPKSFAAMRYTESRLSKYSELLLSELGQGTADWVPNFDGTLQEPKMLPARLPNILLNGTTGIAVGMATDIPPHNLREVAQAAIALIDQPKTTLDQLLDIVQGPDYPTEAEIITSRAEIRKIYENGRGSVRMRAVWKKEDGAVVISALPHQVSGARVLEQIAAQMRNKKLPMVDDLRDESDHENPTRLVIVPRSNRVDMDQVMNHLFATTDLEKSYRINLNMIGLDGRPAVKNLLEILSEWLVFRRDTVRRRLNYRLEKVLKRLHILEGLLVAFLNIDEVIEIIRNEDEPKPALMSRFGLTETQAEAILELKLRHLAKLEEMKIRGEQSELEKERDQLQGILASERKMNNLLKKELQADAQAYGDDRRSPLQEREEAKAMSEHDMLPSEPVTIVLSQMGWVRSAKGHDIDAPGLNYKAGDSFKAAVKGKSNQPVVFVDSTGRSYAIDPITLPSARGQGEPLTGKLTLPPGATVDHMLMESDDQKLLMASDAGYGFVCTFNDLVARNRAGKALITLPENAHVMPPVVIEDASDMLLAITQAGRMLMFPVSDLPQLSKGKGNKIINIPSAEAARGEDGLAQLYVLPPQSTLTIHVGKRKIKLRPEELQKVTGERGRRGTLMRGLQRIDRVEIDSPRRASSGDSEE
E. coli TopoIV, sequence (P20083 whole entry): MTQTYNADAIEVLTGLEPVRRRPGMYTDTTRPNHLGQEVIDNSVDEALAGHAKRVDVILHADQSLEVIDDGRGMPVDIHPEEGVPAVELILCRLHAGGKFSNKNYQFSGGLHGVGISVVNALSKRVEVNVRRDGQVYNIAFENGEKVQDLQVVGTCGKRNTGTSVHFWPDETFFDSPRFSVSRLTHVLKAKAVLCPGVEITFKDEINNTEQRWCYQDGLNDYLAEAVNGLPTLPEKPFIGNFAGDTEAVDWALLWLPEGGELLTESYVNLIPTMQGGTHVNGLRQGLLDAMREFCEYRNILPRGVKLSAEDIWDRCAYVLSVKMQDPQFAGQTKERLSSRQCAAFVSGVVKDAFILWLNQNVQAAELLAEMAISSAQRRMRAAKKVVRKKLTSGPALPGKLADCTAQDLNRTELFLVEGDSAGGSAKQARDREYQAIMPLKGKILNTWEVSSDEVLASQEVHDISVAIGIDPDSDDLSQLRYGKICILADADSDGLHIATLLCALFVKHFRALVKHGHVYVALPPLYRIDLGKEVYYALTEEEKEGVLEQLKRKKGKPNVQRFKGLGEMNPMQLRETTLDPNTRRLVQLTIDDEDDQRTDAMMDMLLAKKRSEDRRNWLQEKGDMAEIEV

Usually IC50 stands for the concentration needed to halve the response being measured. By MIC is commonly meant the lowest concentration found to suppress growth. A higher MIC goes with a need for much substance. On to `Cc1cc(=O)n2c3c(c4c(cc13)c1ccccc1c(=O)n4C)OCC2CN` (stereo not drawn) [Compound 15], for which the 50% inhibitory concentration (IC50) in experiment [1] was determined as 37 ± 13 nM; in experiment [6] it was 17 ± 1 nM. Moreover, the lowest concentration to inhibit growth in experiment [2] (MIC) was 1 µg/mL (≈ 2.77 µM). Also, the “Inhibition of purified E. coli DNA Gyrase” value in experiment [3] is listed as “able to inhibit”. Also, in experiment [4], the “Inhibition of purified E. coli TopoIV” value is recorded as “able to inhibit”. In experiment [5], the “S. aureus MIC” value came out at 1 µg/mL.
Consider `Cc1cc(=O)n(C)c2c3c4c(cc12)c(C)cc(=O)n4C(CN1CCCC1)CO3` (stereo not drawn) [Compound 20], for which the figures for the IC50 in experiment [1] and in experiment [6] were 9 ± 1 nM and 16 ± 2 nM, respectively. Besides, in experiment [5] (Staphylococcus aureus), the MIC was determined as 0.5 µg/mL (≈ 1.32 µM).
